Where two headings read alike, the source gives them in different places.
Legend:
[1] = target: T1, neurofibrillary tangles (phosphorylated tau) (Homo sapiens, UniProt P10636); design: method as in PMID 16914838; settings: brain samples from AD patients; cited from earlier work
Aβ42 = tested on: Aβ42; design: method as in PMID 24900645; settings: ThT-based fluorometric assay; cited from earlier work
Aβ1–42 peptide = target: T2, Aβ1–42 peptide (Homo sapiens, UniProt P05067); assay: Aβ1–42 aggregation inhibition, Thioflavin T fluorescence; format: biochemical; settings: 0.5 μM compound; Figure 11
T2 construct: amyloid β protein fragment 1–42 (MW = 4514.04); purchased Merck-Sigma-Aldrich
T2 sequence (P05067 672-713 limits assumed): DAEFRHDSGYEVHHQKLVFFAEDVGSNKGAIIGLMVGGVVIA
Experimental: A 0.5 mg/mL solution of Aβ1–42 peptide in 10% aqueous ammonium hydroxide was sonicated for 30 min to achieve monomerization. Solvent evaporation in a SpeedVac afforded a thin film that was dissolved in 60 mM NaOH, adjusting its concentration to 20 μM, as a stock solution. For aggregation inhibition experiments, 2 μM Aβ1–42 peptide was mixed with the styrylquinolines 6 and incubated for 4 days at 37 °C. The degree of Aβ aggregation was determined using Thioflavin-T fluorescence analysis.
All assays were done on flat black 96-well plates. […] Peptide Aβ1–42 alone in buffer reaction served as a control for the screen. Fluorescence values were measured at 37 °C in replicates using a microplate reader, with the measurement taken at 24 h intervals for 72 h. […] All assays were performed at least twice to ensure reproducibility.

[2] = target: T3, AcPHF6 (Ac-VQIVYK-NH2) tau-hexapeptide (Homo sapiens, UniProt P10636); assay: AcPHF6 aggregation inhibition, Thioflavin T fluorescence; format: biochemical; settings: 1 μM, non-toxic concentration; Figure 12
T3 construct: purchased Bachem (Bubendorf BL, Switzerland)
Experimental: This in vitro assay was performed using the N-acetylated and C-amidated hexapeptide AcPHF6 (Ac-VQIVYK-NH2), derived from the ^306VQIVYK^311 sequence found in the native […]. This region of the tau protein is involved in fibril aggregation processes and is commonly used as a model for screening tau aggregation inhibitors.
In brief, AcPHF6 peptide was dissolved in 50 mM phosphate buffer (pH 7.4) at a concentration of 1 mM and vortexed to obtain a homogeneous solution. For aggregation inhibition experiments, 100 μM AcPHF6 peptide was mixed with compounds 6 and incubated at 37 °C for 4 days. The degree of AcPHF6 aggregation was determined using Thioflavin-T fluorescence analyses.
Briefly, the screen of the styrylquinolines was performed based on Thioflavin T fluorescence. All assays were done on flat black 96-well plates. […] Immediately before the experiment, 1 μM heparin was added to initiate AcPHF6 aggregation. AcPHF6 alone in buffer reaction served as a control for the screen. Fluorescence values were taken at 24 h intervals for 72 h, at 37 °C and in replicates, using a microplate reader. […] All assays were performed at least twice to ensure reproducibility.

[3] = target: T4, fibrils of β-amyloid peptide (human Aβ1–42) (Homo sapiens, UniProt P05067); assay: Fluorescence titration of sensors with β-amyloid fibrils (Kd by non-linear fitting); format: binding; settings: for Kd: fibrils of β-amyloid peptide, sensor 1.0 × 10^−6 M, protein 0 to 2.0 × 10^−6 M, ICT band excitation/emission maxima, read-out: Binding constants values (Kd) and standard deviations
T4 construct: amyloid β protein fragment 1–42 (MW = 4514.04); purchased Merck-Sigma-Aldrich
T4 sequence (P05067 672-713 limits assumed): as above
Experimental: Amyloid fibrils from human Aβ1–42 peptide were prepared using a procedure that combines several protocols described in the literature. A 2.2 × 10^−4 M solution of commercially available Aβ1–42 peptide was prepared in a small volume of 100 mM sodium phosphate buffer (pH = 7.04) containing EDTA in concentration 10 mM. This solution was incubated at 37 °C during 72 h in a dry bath supported on an orbital shaker working at 200 rpm. […] Subsequently, 10 μL of the freshly prepared amyloid beta fibrils (c = 1.0 × 10^−4 M) were added to each of the solutions containing the sensors. After a stabilization period of 10 min after each fibril addition at 37 °C, and then equilibration time of 5 min at room temperature, fluorescence emission spectra were recorded for each sensor at their excitation maxima.

[4] = tested on: caspase-3 activity in HEK293-Tau3R cells; assay: Caspase-3 activity in cells treated with okadaic acid (Ac-DEVD-AMC substrate); format: cell-based, human; settings: for Caspase-3 activation induced by okadaic acid: 25 nM okadaic acid with compound at 10 or 100 nM; for Decrease of caspase-3 activity compared to cells treated with okadaic acid alone: 100 nM compound, 25 nM okadaic acid, p < 0.05
Experimental: HEK293-Tau3R cells in logarithmic growth phase were digested with trypsin at a concentration of 0.25% and then resuspended in the medium and subcultured in Petri dishes (100 × 15 mm) at a seeding density of 1.5 × 10^5 cells/mL. […] Upon completion of the treatment, cells were collected, washed twice with PBS (pH 7.4) and pelleted by centrifugation at 1000× g for 5 min. The pellet was then resuspended in PBS and centrifuged again at 1000× g for 10 min at 4 °C to remove the supernatant. The resulting cell pellets were lysed in a buffer containing 10 mM Tris–HCl (pH 7.5) with 0.5% CHAPS, 1 mM MgCl2, 1 mM EGTA, 1 mM EDTA, 10% glycerol, 5 mM β-mercaptoethanol, 1 mM DTT, 1 mM phenylmethylsulfonyl fluoride (PMSF), 100 μM leupeptin and 1 μM pepstatin. Following a 30 min incubation on ice, the lysates were clarified by centrifugation at 13,000× g for 5 min. Protein concentrations in the supernatants were determined using the bicinchoninic acid (BCA) assay.
The caspase 3 activity assay performed using the known fluorogenic substrate Ac-DEVD-AMC. HEK293-Tau3R cells were harvested, washed with ice-cold PBS and lysed in 100 μL of lysis buffer containing 50 mM HEPES (pH 7.4), 100 mM NaCl, 0.1% CHAPS, 10% glycerol, 10 mM DTT, 0.1 mM EDTA and protease inhibitors (1 μg/μL each of leupeptin, pepstatin and aprotinin). The lysates were, sonicated and centrifuged at 14,000× g for 15 min at 4 °C. For the assay, 20 μg of cellular protein from the lysates were incubated with 20 µM caspase 3 substrate in assay buffer (50 mM HEPES, pH 7.4, 100 mM NaCl, 0.1% CHAPS, 10% glycerol, 10 mM DTT) for 2 h at 37 °C. Substrate cleavage was monitored using a microplate fluorescence reader with excitation at 360 nm and emission at 460 nm. Caspase activity was determined based on the cleavage of the fluorogenic substrate and is expressed as fluorescence arbitrary units.

β-amyloid protein = settings: read-out: ThT-β-amyloid protein dissociation constant Kd, cited from earlier work
[5] = target: T1, neurofibrillary tangles (phosphorylated tau); assay: Ex vivo staining of temporal neocortex of an Alzheimer's disease patient, AT8 antibody co-labelling; settings: temporal neocortex of an AD patient; AT8 antibody detects phosphorylated tau
Experimental: (§1) AD human tissue samples were analyzed within the context of a previous study that utilized fixed coronal sections to investigate the progression of Alzheimer’s disease. Brain tissue samples from AD patients were obtained from the Banco de Tejidos Fundación CIEN (Dr. A. Rábano, Área de Neuropatología, Centro Alzheimer, Fundación Reina Sofía, Madrid, Spain). Immediately after removal, the brains were fixed in cold 4% paraformaldehyde in 0.1 M phosphate buffer (pH 7.4). After 2 h, the tissue was sectioned into small blocks and post-fixed in the same medium at 4 °C for 24–48 h. Serial coronal sections (50 μm thick) were prepared using a vibratome (St. Louis, MO, USA), cryoprotected in a 30% sucrose solution in 0.1 M phosphate buffer and stored in an ethylene glycol/glycerol solution at −20 °C until use. […]
(§2) Image acquisition was performed with a Zeiss LSM 710 confocal laser scanning system (Carl Zeiss Microscopy GmbH, Jena, Germany). They were recorded at 0.5 μm intervals (63 × objective) through separate channels, and ZEN 2012 software (Zeiss) was then used to construct composite images from each optical series by combining the images recorded through the different channels (image resolution 1024 × 1024 pixels; pixel size 188 nm). […]

amyloid-beta plaques [6] = target: T5, amyloid-beta plaques (Homo sapiens, UniProt P05067); assay: Ex vivo staining of somatosensory cortex of APP/PS1 transgenic mice (confocal microscopy); settings: plaques most distinctly labeled at 458 nm excitation, also 488 and 555 nm, none at 594 or 405 nm
T5 sequence (P05067 672-711 limits assumed): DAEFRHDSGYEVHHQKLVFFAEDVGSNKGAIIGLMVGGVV
Excerpt: Compound 6b was chosen for an initial labeling study by assessing its binding properties in the somatosensory cortex of APP/PS1 transgenic mice, a model of Alzheimer’s disease that develops amyloid-beta deposits in the brain from 6 to 7 months of age. […] Amyloid-beta plaques were most distinctly labeled at an excitation wavelength of 458 nm, with effective staining also being observed at 488 nm and 555 nm (Figure 8A–D). In contrast, no staining was detected when exciting at 594 nm or 405 nm (Figure 8E,F).
The free-floating sections were rinsed in 0.1 M phosphate buffer (PB) and incubated for 2 h at room temperature with a 20 μM solution of each compound 6, prepared by diluting a 1.0 × 10^−4 M stock solution in DMSO with phosphate buffer. After incubation, the sections were rinsed again in 0.1 M phosphate buffer, mounted using ProLong Gold Antifade Reagent (Invitrogen Corporation, Carlsbad, CA, USA), and stored at −20 °C.
as §2

amyloid-beta plaques [7] = target: T5, amyloid-beta plaques; assay: Ex vivo staining of temporal neocortex of an Alzheimer's disease patient, amyloid-beta antibody co-labelling; settings: temporal neocortex of an AD patient; 20 μM compound, 2 h
Experimental: as §1, §2

HEK293-Tau3R cells = assay: Cell viability, MTT assay; format: cell-based, human; settings: 10 to 50 nM for 24 h
Experimental: Cells were cultured in DMEM medium supplemented with 10% fetal bovine serum, 1 mM pyruvate, 2 mM glutamine and 0.2 mg/mL of the antibiotic zeocin. Cultures were maintained at 37 °C in a humidified atmosphere containing 5% CO2.
HEK293-Tau3R cells were seeded into 96-well polystyrene plates at a density of 20,000 cells per well and incubated at 37 °C for 24 h to allow cell adhesion. […] Cell viability was assessed by measuring metabolic activity through the reduction of MTT (3-(4,5-dimethylthiazol-2-yl)-2,5-diphenyltetrazolium bromide) to insoluble formazan. Absorbance values were measured at 550 nm using a microplate reader.

T1 sequence (P10636 623-758 limits assumed): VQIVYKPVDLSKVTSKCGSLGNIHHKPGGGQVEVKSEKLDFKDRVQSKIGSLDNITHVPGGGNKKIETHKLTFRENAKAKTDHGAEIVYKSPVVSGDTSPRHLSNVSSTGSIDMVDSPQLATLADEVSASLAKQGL

Q: For Thioflavin S, which “Binding to beta-sheet structures and phosphorylated tau” value [1] is on record?
A: bind both beta-sheet structures and phosphorylated tau

Q: For `Cc1ccc2nc(/C=C/c3ccc(N)cc3)ccc2c1` [A], which “Inhibition of Aβ42 aggregation” value (Aβ42) is on record?
A: moderate fibrillization inhibitor and amyloid binder

Q: Which results are given for `CC(=O)OCCN(CCOC(C)=O)c1ccc(/C=C/c2ccc3cc(C=C(C#N)C#N)ccc3n2)cc1` [6e, (E)-((4-(2-(6-(2,2-Dicyanovinyl)quinolin-2-yl)vinyl)phenyl)azanediyl)bis(ethane-2,1-diyl) diacetate]?
A: Aβ1–42 aggregation inhibition, ranking (Aβ1–42 peptide): most active compound; AcPHF6 aggregation inhibition, ranking [2]: best result; Kd [3]: 10.2 ± 1.53 µM; Caspase-3 activation induced by okadaic acid [4]: significantly reduced; Decrease of caspase-3 activity compared to cells treated with okadaic acid alone [4]: very similar results

Q: Which Kd (β-amyloid protein; ref 57) does the source give for `Cc1ccc2c(c1)sc(-c1ccc(N(C)C)cc1)[n+]2C` [ThT, Thioflavin T] here?
A: 0.8 µM

Q: And the Kd (β-amyloid protein; ref 58)?
A: 2.56 µM

Q: What about the Kd (β-amyloid protein; ref 59) of the same compound?
A: 30.4 µM

Q: And the Kd (β-amyloid protein; ref 60)?
A: 46 µM

Q: With `CN(C)c1ccc(/C=C/c2ccc3cc(C=C(C#N)C#N)ccc3n2)cc1` [6a, (E)-2-((2-(4-(Dimethylamino)styryl)quinolin-6-yl)methylene)malononitrile] as the compound, how does the Kd [3] read?
A: 2.43 ± 0.32 µM

Q: For `CCN(CC)c1ccc(/C=C/c2ccc3cc(C=C(C#N)C#N)ccc3n2)cc1` [6b, (E)-2-((2-(4-(Diethylamino)styryl)quinolin-6-yl)methylene)malononitrile], which “Labeling of neurofibrillary tangles” value [5] is on record?
A: did not label neurofibrillary tangles

Q: And the “Labeling of amyloid-beta deposits” value (amyloid-beta plaques [6])?
A: specific binding to β-sheet amyloid structures

Q: What about the Kd [3] of the same compound?
A: 7.93 ± 0.63 µM

Q: What about the “Labeling of amyloid-beta plaques” value (amyloid-beta plaques [7]) of the same compound?
A: specifically labeled amyloid-beta plaques

Q: What about the “Caspase-3 activation induced by okadaic acid” value [4] of the same compound?
A: significantly reduced

Q: With `C=C1[C@@H](O)[C@@H]2O[C@]3(CC[C@H](/C=C/[C@@H](C)[C@@H]4CC(C)=C[C@@]5(O[C@H](C[C@@](C)(O)C(=O)O)CC[C@H]5O)O4)O3)CC[C@H]2O[C@@H]1[C@@H](O)C[C@H](C)[C@H]1O[C@@]2(CCCCO2)CC[C@H]1C` [okadaic acid, reference compound] as the compound, how does the “Concentrations at which a marked decline in cell viability was observed” value (HEK293-Tau3R cells) read?
A: above 30 nM

Q: And the “Concentration from which caspase 3 activity began to rise” value ([4]; okadaic acid 10–50 nM)?
A: ≥ 25 nM

Q: Which results are given for `N#CC(C#N)=Cc1ccc2nc(/C=C/c3ccc(N4CCCCC4)cc3)ccc2c1` [6c, (E)-2-((2-(4-(Piperidin-1-yl)styryl)quinolin-6-yl)methylene)malononitrile]?
A: Labeling of neurofibrillary tangles [5]: did not label neurofibrillary tangles; Kd [3]: 8.19 ± 0.61 µM; Labeling of amyloid-beta plaques (amyloid-beta plaques [7]): specifically labeled amyloid-beta plaques

Q: What does the source list for “(E)-2-((2-(2-(4-(Dimethylamino)naphthalen-1-yl)vinyl)quinolin-6-yl)-methylene)malononitrile [6g]”?
A: Enhancement of fluorescence emission in the presence of beta-amyloid protein fibrils ([3]; excitation wavelength characteristic of each compound, Figure 6): greater difficulty in binding to the beta sheet structure of the protein; Caspase-3 activation induced by okadaic acid [4]: significantly reduced; Decrease of caspase-3 activity compared to cells treated with okadaic acid alone [4]: more than 50%

Q: With `N#CC(C#N)=Cc1ccc2nc(/C=C/c3ccc(N4CCOCC4)cc3)ccc2c1` [6d, (E)-2-((2-(4-Morpholinostyryl)quinolin-6-yl)methylene)malononitrile] as the compound, how does the Kd [3] read?
A: 6.6 ± 0.79 µM

Q: What about the “Caspase-3 activation induced by okadaic acid” value [4] of the same compound?
A: significantly reduced

— publication PMC12428582, “2-Styrylquinolines with Push-Pull Architectures as Sensors for β-Amyloid Aggregation with Theranostic Properties” (International Journal of Molecular Sciences, 2025)
